How the values were obtained:
[1] = Rat GC4419 14-day IV study; format: in vivo; details: both sexes, rat, in vivo; rats, 15 minute IV infusion, 14 days
Protocol: (§1) GC4419 was evaluated in a 14-day GLP study in rats. GC4419 was administered to rats (10/sex/group) as 15 minute IV injections at dosages of 0, 5, 10 or 20 (15) mg/kg/day for 14 days. The control group received vehicle (sodium citrate in normal saline). Due to mortality at 20 mg/kg/day, the high dose group was decreased to 15 mg/kg/day on Day 3. Evaluations for compound-related effects were based on clinical observations, body weight, food consumption, hematology and clinical chemistry parameters, functional observation battery, organ weights and gross and microscopic postmortem examinations. […] There were no compound-related changes in organ weights or macroscopic or microscopic pathology. Based on the results of this study the NOAEL for GC4419 when administered to rats for 14 days as a 15 minute IV infusion was 15 mg/kg/day.

[2] = tested on: Rats; assay: Rat GC4419 14-day IV study; format: in vivo; details: 20 mg/kg, Days 1 or 2
Protocol: as §1

For [Cl][Mn-5]1234([Cl])[n+]5c6cccc5C[NH+]1[C@H]1CCCC[C@@H]1[NH+]2CC[NH+]3[C@H]1CCCC[C@@H]1[NH+]4C6 (some centres unmarked) [GC4419], the NOAEL at 14 days [1] was 15 mg/kg/day and the mortality [2] was “Several rats died”.

Reference: US11826373B2, “Methods for treatment of diseases” (Galera Labs, LLC, priority 2011, dated 2023)
